Measurements reported in PMC8900257 (ACS chemical biology, 2019).
Where “and” joins values, the source holds several entries; their conditions need not be identical. Identical values can stand only once. Like-named read-outs stand apart in the source and are kept apart here.

Legend:
[1] = test system: non-replicating M. smegmatis; assay: Cell viability by CFU assay under carbon starvation; format: cell-based, Mycobacterium smegmatis; details: Mycolicibacterium smegmatis, 96 h, read-out: colony forming unit (CFU) reduction
M. tuberculosis H37Rv = assay: M. tuberculosis growth inhibition; format: cell-based, Mycobacterium tuberculosis; details: for MIC: Mycobacterium tuberculosis, H37RV, read-out: Mycobacterium Growth inhibition, MIC (μM) tuberculosis, Table 2, this study
M. tuberculosis [2] = details: Table 1; nd = no detected effect; ref PubChem Bioassay AID 449762; cited from earlier work
[3] = test system: M. tuberculosis H37Rv fructose-bisphosphate aldolase (FBA); details: ref PubChem Bioassay AID 588726; cited from earlier work
M. tuberculosis [4] = details: Table 1; values deduced from ref PubChem Bioassay AID 1626; cited from earlier work
NAD pool = NAD pool level in M. smegmatis, colorimetric detection kit; format: cell-based, Mycobacterium smegmatis

SMILES: CC1CCC(C(C)C)C(OC(=O)Cn2c(COc3ccccc3)[n+](C)c3ccccc32)C1 (stereo not drawn) [N2–8]
- log reduction at 25 µM [1]: > 2
- MIC (M. tuberculosis H37Rv): 21.2 µM

SMILES: C=CCNC(=O)c1cn(CC)c2cc(N3CCN(C(=O)c4ccco4)CC3)c(F)cc2c1=O [N1–4]
- Mycobacterium Growth inhibition MIC (μM) tuberculosis e (M. tuberculosis [2]): 25 µM
- Enzyme inhibition (%) at 1 μM MtFBA [3]: 97.0%

SMILES: CCn1cc(C(=O)NCc2ccncc2)c(=O)c2cc(F)c(N3CCN(C(=O)c4ccco4)CC3)cc21 [N1–16]
- Mycobacterium Growth inhibition MIC (μM) tuberculosis d (M. tuberculosis [4]): >100 µM
- Enzyme inhibition (%) at 1 μM MtFBA [3]: 41.76%

SMILES: Cc1ccccc1OCc1n(CC(=O)OC2CC(C)CCC2C(C)C)c2ccccc2[n+]1C (stereo not drawn) [N2–9]
- MIC (M. tuberculosis H37Rv): 38.5 µM

SMILES: CCn1cc(C(=O)NCc2ccco2)c(=O)c2cc(F)c(N3CCN(C(=O)c4ccco4)CC3)cc21 [N1–29]
- Mycobacterium Growth inhibition MIC (μM) tuberculosis e (M. tuberculosis [2]): <25 µM
- Mycobacterium Growth inhibition MIC (μM) tuberculosis d (M. tuberculosis [4]): >10 µM
- Enzyme inhibition (%) at 1 μM MtFBA [3]: 19.8%

SMILES: CCCNC(=O)c1cn(CC)c2cc(N3CCN(C(=O)c4ccco4)CC3)c(F)cc2c1=O [N1–3]
- Mycobacterium Growth inhibition MIC (μM) tuberculosis e (M. tuberculosis [2]): 25 µM
- Enzyme inhibition (%) at 1 μM MtFBA [3]: 79.9%

SMILES: CCN(CC)CCCNC(=O)c1cn(CC)c2cc(N3CCN(C(=O)c4ccco4)CC3)c(F)cc2c1=O [N1–31]
- Mycobacterium Growth inhibition MIC (μM) tuberculosis e (M. tuberculosis [2]): >25 µM
- Enzyme inhibition (%) at 1 μM MtFBA [3]: 54.21%

SMILES: CCn1cc(C(=O)NCc2ccccc2)c(=O)c2cc(F)c(N3CCN(C(=O)c4ccco4)CC3)cc21 [N1–10]
- Mycobacterium Growth inhibition MIC (μM) tuberculosis e (M. tuberculosis [2]): 25 µM
- Mycobacterium Growth inhibition MIC (μM) tuberculosis d (M. tuberculosis [4]): <10 µM
- Enzyme inhibition (%) at 1 μM MtFBA [3]: 20% and 20.43%

SMILES: CC1CCC(C(C)C)C(OC(=O)Cn2c[n+](CC(=O)OC3CC(C)CCC3C(C)C)c3ccccc32)C1 (stereo not drawn) [N2–1]
- MIC (M. tuberculosis H37Rv): 46.7 µM

SMILES: CCn1cc(C(=O)NCC(C)C)c(=O)c2cc(F)c(N3CCN(C(=O)c4ccco4)CC3)cc21 [N1–6]
- Enzyme inhibition (%) at 1 μM MtFBA [3]: 11.37%

SMILES: CCn1cc(C(=O)NCc2cccc(F)c2)c(=O)c2cc(F)c(N3CCN(C(=O)c4ccco4)CC3)cc21 [N1–13]
- Mycobacterium Growth inhibition MIC (μM) tuberculosis e (M. tuberculosis [2]): 25 µM
- Mycobacterium Growth inhibition MIC (μM) tuberculosis d (M. tuberculosis [4]): 12.5 µM
- Enzyme inhibition (%) at 1 μM MtFBA [3]: 40% and 38.2%

SMILES: COc1ccc(-c2n(CC(=O)OC3CC(C)CCC3C(C)C)c3ccccc3[n+]2C)cc1 (stereo not drawn) [N2–7]
- NAD pool depletion (NAD pool): rapid depletion of the NAD pool

SMILES: CCn1cc(C(=O)Nc2ncccc2O)c(=O)c2cc(F)c(N3CCN(C(=O)c4ccco4)CC3)cc21 [N1–20]
- Enzyme inhibition (%) at 1 μM MtFBA [3]: 14.6%

SMILES: Cc1ccc(OCc2n(CC(=O)OC3CC(C)CCC3C(C)C)c3ccccc3[n+]2C)cc1 (stereo not drawn) [N2–10]
- MIC (M. tuberculosis H37Rv): 19.7 µM

SMILES: CCn1cc(C(=O)NC(C)C)c(=O)c2cc(F)c(N3CCN(C(=O)c4ccco4)CC3)cc21 [N1–1]
- Mycobacterium Growth inhibition MIC (μM) tuberculosis e (M. tuberculosis [2]): >25 µM
- Enzyme inhibition (%) at 1 μM MtFBA [3]: 54.81%

SMILES: CCC(C)NC(=O)c1cn(CC)c2cc(N3CCN(C(=O)c4ccco4)CC3)c(F)cc2c1=O (stereo not drawn) [N1–2]
- Mycobacterium Growth inhibition MIC (μM) tuberculosis e (M. tuberculosis [2]): 50 µM
- Enzyme inhibition (%) at 1 μM MtFBA [3]: 54.28%

SMILES: COc1ccc(OCc2n(CC(=O)OC3CC(C)CCC3C(C)C)c3ccccc3[n+]2C)cc1 (stereo not drawn) [N2–11]
- log reduction at 25 µM [1]: ≤ 4
- MIC (M. tuberculosis H37Rv): 28 µM
- Mycobacterium Growth inhibition, MIC (μM) tuberculosis (M. tuberculosis H37Rv; Table 2, this study): 28.2 µM
- NAD pool depletion (NAD pool; inhibitor at ~5× MIC added at log-phase, samples over 6 hours): rapid depletion of the NAD pool

SMILES: CCCCNC(=O)c1cn(CC)c2cc(N3CCN(C(=O)c4ccco4)CC3)c(F)cc2c1=O [N1–5]
- Mycobacterium Growth inhibition MIC (μM) tuberculosis e (M. tuberculosis [2]): >25 µM
- Enzyme inhibition (%) at 1 μM MtFBA [3]: 22.14%

SMILES: CCn1cc(C(=O)NCCC(C)C)c(=O)c2cc(F)c(N3CCN(C(=O)c4ccco4)CC3)cc21 [N1–7]
- Mycobacterium Growth inhibition MIC (μM) tuberculosis e (M. tuberculosis [2]): >25 µM
- Enzyme inhibition (%) at 1 μM MtFBA [3]: 14.68%

SMILES: CCN(CC)CCNC(=O)c1cn(CC)c2cc(N3CCN(C(=O)c4ccco4)CC3)c(F)cc2c1=O [N1–30]
- Mycobacterium Growth inhibition MIC (μM) tuberculosis d (M. tuberculosis [4]): >100 µM
- Enzyme inhibition (%) at 1 μM MtFBA [3]: 22.17%
